Measurements published in patent publication US20260167622A1, “PAN-KRAS DEGRADING AGENT, AND PREPARATION METHOD THEREFOR AND USE THEREOF” (LEADINGTAC PHARMACEUTICAL (SHAOXING) CO., LTD., priority 2022, published 2026).
pIC50: −log10 of the molar value.

Experiments:
Assay type in all cases: cell-based
[1] = target: T1, KRAS G12V protein in SW900 cells (Homo sapiens, UniProt P01116, G12V); assay: KRAS degradation assay (Western Blot) in SW900 cells; conditions: 24 h
T1 construct: endogenous in cells; host or cells: SW900
In short: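 AsPc-1, A427, DLD-1 and SW900 cells (5×10^5/well) were treated 24 h at 37 °C with compound at 0.03-3000 nM final (0.25% DMSO). KRAS in lysates was detected by Western blot (5 μg protein, ECL), normalized to β-actin and compared with control to derive DC50 and Dmax.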

[2] = test system: KRAS G12D mutant human metastatic pancreatic cancer cell AsPc-1; assay: 3D cell proliferation inhibition assay, AsPc-1; conditions: ASPC1, 168 h, 3D culture, 7 days, CTG
In short: (§1)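 Cells were seeded in low-adsorption 96-well plates at 5×10^2 cells/well (MKN1 at 1×10^3) with compounds at final 10000-0.026 nM, 0.2% DMSO, and grown 7 days at 37° C. CTG luminescence gave inhibition relative to DMSO and medium-only controls, and IC50 came from a log-concentration curve fit.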

[3] = test system: KRAS WT human gastric cancer cell MKN1; assay: 3D cell proliferation inhibition assay, MKN1; conditions: MKN-1, 168 h, 3D culture, 7 days, CTG
In short: as §1

[4] = test system: KRAS G12D mutant human lung cancer cell A427; assay: 3D cell proliferation inhibition assay, A427; conditions: A-427, 168 h, 3D culture, 7 days, CTG
In short: as §1

T1 sequence (P01116 1-188 isoform P01116-2 G12V): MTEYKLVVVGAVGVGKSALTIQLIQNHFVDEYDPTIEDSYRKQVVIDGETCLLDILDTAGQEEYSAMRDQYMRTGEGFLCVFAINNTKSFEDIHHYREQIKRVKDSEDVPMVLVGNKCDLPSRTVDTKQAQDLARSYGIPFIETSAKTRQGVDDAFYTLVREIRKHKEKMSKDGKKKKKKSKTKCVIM

| SMILES | DC50 [1] [nM] | Dmax [1] [%] | pIC50 [2] | pIC50 [3] | pIC50 [4] |
| --- | --- | --- | --- | --- | --- |
| C#Cc1c(F)ccc2cc(O)cc(-c3ncc4c(N5CCC[C@@](C)(O)C5)nc(OCC5(CN6CCN(CC7CCC8(CC7)CCN(C(=O)c7ccc(Cl)c(N9CCC(=O)NC9=O)c7)CC8)CC6)CC5)nc4c3F)c12 [Example 1, (R)-1-(2-chloro-5-(9-((4-((1-(((7-(8-ethynyl-7-fluoro-3-hydroxynaphthalen-1-yl)-8-fluoro-4-(3-hydroxy-3-methylpiperidin-1-yl)pyrido[4,3-d]pyrimidin-2-yl)oxy)methyl)cyclopropyl)methyl)piperazin-1-yl)methyl)-3-azaspiro[5.5]undecane-3-carbonyl)phenyl)dihydropyrimidine-2,4(1H,3H)-dione] | ≤ 50 | 80 to 100 | ≥ 7.30 | ≥ 7.30 | ≥ 7.30 |
| C#Cc1cccc2cc(O)cc(-c3ncc4c(N5CCC[C@@](C)(O)C5)nc(OCC5(CN6CCN(CC7CCC8(CC7)CCN(C(=O)c7ccc(Cl)c(N9CCC(=O)NC9=O)c7)CC8)CC6)CC5)nc4c3F)c12 [Example 11, (R)-1-(2-chloro-5-(9-((4-((1-(((7-(8-ethynyl-3-hydroxynaphthalen-1-yl)-8-fluoro-4-(3-hydroxy-3-methylpiperidin-1-yl)pyrido[4,3-d]pyrimidin-2-yl)oxy)methyl)cyclopropyl)methyl)piperazin-1-yl)methyl)-3-azaspiro[5.5]undecane-3-carbonyl)phenyl)dihydropyrimidine-2,4(1H,3H)-dione] | ≤ 50 | 80 to 100 | ≥ 7.30 | ≥ 7.30 | 7.00 to 7.30 |
| C#Cc1c(F)ccc2cc(O)cc(-c3ncc4c(N5CCC[C@@](C)(O)C5)nc(OCC5(CN6CCN(CC7CCC8(CC7)CCN(C(=O)c7ccc(C)c(N9CCC(=O)NC9=O)c7)CC8)CC6)CC5)nc4c3F)c12 [Example 6, (R)-1-(5-(9-((4-((1-(((7-(8-ethynyl-7-fluoro-3-hydroxynaphthalen-1-yl)-8-fluoro-4-(3-hydroxy-3-methylpiperidin-1-yl)pyrido[4,3-d]pyrimidin-2-yl)oxy)methyl)cyclopropyl)methyl)piperazin-1-yl)methyl)-3-azaspiro[5.5]undecane-3-carbonyl)-2-methylphenyl)dihydropyrimidine-2,4(1H,3H)-dione] | ≤ 50 | 80 to 100 | ≥ 7.30 | ≥ 7.30 | ≥ 7.30 |
| C#Cc1c(F)ccc2cc(O)cc(-c3ncc4c(N5CCC[C@@](C)(O)C5)nc(OCC5(CN6CCN(CC7CCC8(CC7)CCN(C(=O)c7ccc(OC)c(N9CCC(=O)NC9=O)c7)CC8)CC6)CC5)nc4c3F)c12 [Example 7, (R)-1-(5-(9-((4-((1-(((7-(8-ethynyl-7-fluoro-3-hydroxynaphthalen-1-yl)-8-fluoro-4-(3-hydroxy-3-methylpiperidin-1-yl)pyrido[4,3-d]pyrimidin-2-yl)oxy)methyl)cyclopropyl)methyl)piperazin-1-yl)methyl)-3-azaspiro[5.5]undecane-3-carbonyl)-2-methoxyphenyl)dihydropyrimidine-2,4(1H,3H)-dione] | ≤ 50 | 80 to 100 | ≥ 7.30 | ≥ 7.30 | ≥ 7.30 |
| CCc1c(F)ccc2cc(O)cc(-c3ncc4c(N5CCC[C@@](C)(O)C5)nc(OCC5(CN6CCN(CC7CCC8(CC7)CCN(C(=O)c7ccc(Cl)c(N9CCC(=O)NC9=O)c7)CC8)CC6)CC5)nc4c3F)c12 [Example 2, (R)-1-(2-chloro-5-(9-((4-((1-(((7-(8-ethyl-7-fluoro-3-hydroxynaphthalen-1-yl)-8-fluoro-4-(3-hydroxy-3-methylpiperidin-1-yl)pyrido[4,3-d]pyrimidin-2-yl)oxy)methyl)cyclopropyl)methyl)piperazin-1-yl)methyl)-3-azaspiro[5.5]undecane-3-carbonyl)phenyl)dihydropyrimidine-2,4(1H,3H)-dione] | ≤ 50 | 80 to 100 | ≥ 7.30 | ≥ 7.30 | ≥ 7.30 |
| CCc1cccc2cc(O)cc(-c3ncc4c(N5CCC[C@@](C)(O)C5)nc(OCC5(CN6CCN(CC7CCC8(CC7)CCN(C(=O)c7ccc(Cl)c(N9CCC(=O)NC9=O)c7)CC8)CC6)CC5)nc4c3F)c12 [Example 3, (R)-1-(2-chloro-5-(9-((4-((1-(((7-(8-ethyl-3-hydroxynaphthalen-1-yl)-8-fluoro-4-(3-hydroxy-3-methylpiperidin-1-yl)pyrido[4,3-d]pyrimidin-2-yl)oxy)methyl)cyclopropyl)methyl)piperazin-1-yl)methyl)-3-azaspiro[5.5]undecane-3-carbonyl)phenyl)dihydropyrimidine-2,4(1H,3H)-dione] | ≤ 50 | 80 to 100 | ≥ 7.30 | ≥ 7.30 | ≥ 7.30 |
